pIC50: −log10 of the molar value. “Also recorded” adds a separate entry of the source. Like-named read-outs stand apart in the source and are kept apart here. Bounds are passed on as bounds.

Series [1] concerns human liver cancer (HepG2) cells. The series is described as follows: WST-1 cytotoxicity assay in HepG2 cells. It is filed as cell-based. Conditions: for pIC50: HepG2, 72 h treatment, WST-1 assay; for change in cell viability: HepG2, 72 h, 0.3 to 30 mM. The protocol: (§1) HepG2 cells were purchased from the German Collection of Microorganisms and Cell Cultures (DSMZ, Braunschweig, Germany). HepG2 cells which constitutively express human CYP2E1 (E47 cells, HepG2-CYP2E1) and control HepG2 cells transfected with empty vector (C34 cells, HepG2- vector), originally established by Wu and Cederbaum[27], were kindly provided by C. Hellerbrand (University Medical Center Regensburg, Germany). The cells were cultured in low glucose Dulbecco’s modified eagle medium supplemented with 15% fetal calf serum and 1% Pen/Strep in an atmosphere with 5% CO2 at 37 °C and 95% air humidity.
(§2) Cytotoxicity was determined with the WST-1 assay (Roche Diagnostics Deutschland GmbH, Mannheim, Germany). The assay is based on the ability of viable cells to cleave the tetrazolium salt WST-1 to formazan by their mitochondrial succinate-tetrazolium-reductase system. Cells were cultured at an initial density of 5000 cells/well in 96-well plates for 48 h. Then, cells were treated with the nitriles (0.3 to 30 mM, solved in distilled water) for 72 h. As positive control, 0.01% Triton X-100 was used. Following compound exposure and incubation, the WST 1 assay was performed according to the manufacturer’s instructions.
The median growth inhibitory concentration (IC50) for compound cytotoxicity was calculated using Graphpad Prism 5.0 software (La Jolla, CA). After logarithmic transformation, IC50 values were calculated with equation 1: […]
(Tetrazolium assays rely on reduction of a dye to a coloured formazan, in cell work by metabolically active cells.)

For the next series, the system named is quinone reductase. Conditions: cited from earlier work.
For series [2], the system named is HepG2 cells. Also on record: method as in Lamy et al. (2009). Conditions: HepG2, Comet assay and micronucleus test; ref Lamy et al. (2009); cited from earlier work.
Another series relates to Hepa1c1c7 cells. Conditions: Hepa1c1c7, 5 mM, 72 h; cited from earlier work.
Series [3] has as its system HepG2-CYP2E1 cells. Kind of series: WST-1 cytotoxicity assay in CYP2E1-overexpressing HepG2 cells versus vector control cells. It is filed as cell-based, human. To be noted: 10 mM, 72 h. On the procedure: as §1, §2
Series [4] has as its system primary murine hepatocytes. Kind of series: WST-1 cell viability in primary murine hepatocytes. It is filed as cell-based, mouse. Conditions: 72 h. The protocol:
Murine hepatocytes were obtained from 8–16 week-old, male C57BL6 mice (Charles River Laboratory, Sulzfeld, Germany) as described elsewhere. The institutional and national guidelines for the care and use of animals were followed, and all experimental procedures were approved by the institutional Animal Care and Use Committee at the University of Freiburg according to § 8.I of the Animal Welfare Act. 2–2.2 × 10^5 cells were plated in 24 well plates. The cells were left undisturbed for 4 h in a 5% CO2 atmosphere at 37 °C and then the medium was changed to serum free Williams’ Medium E supplemented with 100 nM dexamethasone. Within 24 h the cells were exposed to the test compounds and controls for 72 h.
as §2

The test system of series [5] is HepG2 cells. The series is described as follows: Comet assay (DNA strand breaks) in HepG2 cells. It is filed as cell-based, human. To be noted: HepG2, 24 h; for concentration with significant increase in DNA strand breaks: Olive Tail Moment and percent tail DNA. On the procedure: (§3) The single cell gel electrophoresis assay also known as Comet assay was carried out as described earlier with slight modifications. The percent tail DNA and the Olive Tail Moment (OTM) were calculated as indicators of DNA damage. For each sample, 102 systematically screened cells were evaluated. Briefly, HepG2 cells were seeded onto well plates. After 48 h of growth, the cells were exposed to the nitriles or ITC for 24 h. As positive control 50 μM B(α)P and as solvent control distilled water or 0.1% DMSO was used. To analyze the repair capacity of HepG2 cells, the test substances were removed after 24 h and incubated for another 24 h before the assay was terminated.

For series [6], the system named is HepG2-CYP2E1 cells. Kind of series: Comet assay in CYP2E1 transfected HepG2 and vector cells. Conditions: 24 h. Format: cell-based, human. On the procedure: as §1, §3
Series [7] concerns activated human T lymphocytes. Also on record: method as in PMID 27161402. Conditions: cited from earlier work.
The subject of the next series is UM-2BB cells. Also on record: method as in Lui et al. (2003). Conditions: MTT-assay, ref Lui et al. (2003); cited from earlier work.
Setting [8] is: Homo sapiens, read-out: IC50 (median growth inhibitory concentration).

Turning to `CSCCCCCC#N` [5-MTP-CN, 6-(methylthio)hexylnitrile], the pIC50 in series [1] (setting [8]) is 1.91.
In the case of `C[S+]([O-])CCCCC#N` (centres unmarked) [sulforaphane nitrile, 5-(methylsulfinyl)pentylnitrile], the “concentration reaching a similar induction of quinone reductase as sulforaphane” value with quinone reductase is given as 2 mM.
In the case of `C[S+]([O-])CCCCN=C=S` (centres unmarked) [Sulforaphane, 4-(methylsulfinyl)butyl ITC], in the series on quinone reductase, the “concentration inducing quinone reductase” value was 2.5 µM and the “maximum induction of quinone reductase” value is on record as 3.1 fold.
On to `CSCCCC#N` [3-MTP-CN, 4-(methylthio)butylnitrile], for which the pIC50 in [1] (setting [8]) was 1.71.
Consider `CSCCCN=C=S` [3-MTP-ITC, 3-(methylthio)propyl ITC], for which the “concentration inducing DNA damage and mutagenicity” value in the series with HepG2 cells [2] is given as “exceeding 1 μM”.
Take `C=CC(O)CC#N` (centres unmarked) [crambene, 3-hydroxy-4-pentenenitrile]: in the series on Hepa1c1c7 cells, the “cell proliferation diminished by” value is 76% and the “cell viability reduced by” value was 12%.
Turning to `C=CCCCC#N` [4-pent-CN, 5-hexenenitrile], the “change in cell viability” value in series [1] was “did not result in significant changes in cell viability”.
In the case of `CSCCCCC#N` [4-MTB-CN, 5-(methylthio)pentylnitrile], the pIC50 in [1] (setting [8]) is 1.75. Further, the “difference in cytotoxicity between CYP2E1-overexpressing and vector control cells” value with HepG2-CYP2E1 cells [3] is “significant difference in cytotoxicity”. Further, in series [4], the “concentration at which a viability loss was detected” value came out at 30000 µM. Further, in the series with HepG2 cells [5], the “DNA strand breaks, concentration dependence” value is on record as “concentration-dependent increase in DNA strand breaks” and the “concentration with significant increase in DNA strand breaks” value is at least 3 µM.
On to `C=CCCC#N` [3-but-CN, 4-pentenenitrile], for which the “change in cell viability” value in series [1] is recorded as “did not result in significant changes in cell viability”. For the same compound, the viability of hepatocytes entry in series [4] is “significantly decreased the viability of hepatocytes in a concentration-dependent manner”.
With `N#CCc1ccccc1` [benzyl-CN, phenylacetonitrile], in [1] (setting [8]), the pIC50 is 1.70. Moreover, the viability of hepatocytes result in series [4] is “significantly decreased the viability of hepatocytes in a concentration-dependent manner”. For the same compound, in the series with HepG2 cells [5], the “DNA strand breaks, concentration dependence” value is on record as “concentration-dependent increase in DNA strand breaks” and the “concentration with significant increase in DNA strand breaks” value is at least 3 µM. In addition, the “DNA damage compared with benzyl ITC” value in the series with HepG2 cells [5] (3 μM) is reported as “comparable with the effect of benzyl ITC at the same concentration; also recorded: comparable with the effect of benzyl-ITC in the same concentration”. The “concentration with significant increment of DNA strand breaks by CYP2E1-overexpression as compared to vector control cells” value in the series on HepG2-CYP2E1 cells [6] is at least 3 µM. Also, in series [7] (1 mM), the “influence on PGE2 release” value is recorded as “did not influence PGE2 release”.
Turning to `C=CCC#N` [allyl-CN, 3-butenenitrile], the “change in cell viability” value in series [1] is “did not result in significant changes in cell viability”. For the same compound, in [4], the viability of hepatocytes entry is “significantly decreased the viability of hepatocytes in a concentration-dependent manner”.
For the compound `CSCCCCCN=C=S` [5-MTP-ITC, 5-(methylthio)pentyl ITC], in the series with HepG2 cells [2], the “concentration inducing DNA damage and mutagenicity” value is on record as “exceeding 1 μM”.
Regarding `CSCCCCCCC#N` [6-MTH-CN, 7-(methylthio)heptylnitrile], the pIC50 in series [1] (setting [8]) is 2.09.
For `N#CCCc1ccccc1` [2-phenylethyl-CN, 3-phenylpropanenitrile], the pIC50 in series [1] (setting [8]) is 1.74.
Consider `S=C=NCc1ccccc1` [benzyl-ITC, benzyl ITC, reference compound], for which the pIC50 in [1] (read-out: IC50) was 4.80; in the series on UM-2BB cells it was 4.77. The “cytotoxic potency relative to the nitriles” value in [1] (HepG2, ITC versus corresponding nitrile) was 1000 fold. The “concentration with strong interference with pro-inflammatory response including PGE2 release” value in series [7] (activated human T lymphocytes) is at least 3 µM.
